≈ marks a conversion by molar mass, not a printed value. Where “and” joins values, the source holds several entries; their conditions need not be identical. Identical values can stand only once.
Assays:
rat liver GSTs = experiment: In vitro GST enzyme assay (CDNB/GSH) with liver cytosolic fractions of control rats; type: biochemical, male Sprague–Dawley rats; settings: CDNB substrate
Protocol: (§1) Throughout the procedure tissue fractions were kept cold (0–4 °C) by using pre-cooled homogenization medium (50 mM Tris–HCl containing 0.154 M KCl) and keeping centrifuge rotors, tissue homogenizer, measuring cylinders, beakers and centrifuge tubes in ice. Excess blood was removed from the liver by perfusing the livers with ice cold normal saline using a Pharmacia LKB pump P-1 (Pharmacia, Uppsala, Sweden) at a flow rate of 50 ml/h through the still beating heart then gently blotting with dry tissue paper. Perfusion was performed in situ to remove blood. The livers and kidneys were removed and blotted dry. The liver or kidney samples were, weighed, wet mass recorded and livers quickly transferred to a homogenizing vessel, which was kept, on ice. Homogenizing medium 50 mM Tris–HCl pH 7.4 containing 154 mM KCl was added to each sample (5 ml/g of liver). The liver or kidney samples were cut into suitable pieces and homogenized with a motor driven Potter-Elvehjem homogenizer type R2R (Heidolph Elektro KG., Kelheim, Germany). […] The final volume was recorded and “parafilm ^TM” (Sigma-Aldrich Co., Steinheim, Germany) was added to cover. […] Protein content in the liver and kidney cytosolic fractions was determined using the Lowry method. The total GST activity in cell supernatants was measured spectrophotometrically using final concentrations of 1 mM 1-chloro-2,4-dinitrobenzene (CDNB) and 1 mM glutathione, as substrates in 0.1 M potassium phosphate buffer pH 6.5, and GST (0.125 mg/ml protein). Cytosolic glutathione transferases activities were assessed using 0.5 mg/ml and 2 mg/ml enzyme dilutions for the liver and kidney samples respectively. […] GST mediated conjugation of 1-chloro-2, 4- dinitrobenzene (CDNB) to glutathione (GSH) was measured using 96-well microtitre plates in a microplate reader (Biokinetics reader EL 340 microplate, Highland Park, 998, Winsooki, VT, USA). […] After addition of CDNB, the plate was transferred to the microplate reader. The plate was read at 5-min intervals for a total of 15 min.

kidney GSTs = experiment: In vitro GST enzyme assay (CDNB/GSH) with kidney cytosolic fractions of control rats; type: biochemical, male Sprague–Dawley rats; settings: CDNB substrate
Protocol: as §1

C=C(CC)C(=O)c1ccc(OCC(=O)O)c(Cl)c1Cl [ETA, ethacrynic acid]
IC50 (rat liver GSTs; liver cytosol from corn oil-treated control group, P. curatellifolia experiments): 10 µg/mL (≈ 33 µM)
IC50 (rat liver GSTs; liver cytosol from normal saline treated control group, P. curatellifolia experiments): 5.8 µg/mL and 6 µg/mL
IC50 (rat liver GSTs; liver cytosol from saline-treated control group, C. zeyheri experiments): 5.4 µg/mL (≈ 17.8 µM)
IC50 (kidney GSTs; kidney cytosol from corn oil-treated control group, P. curatellifolia experiments): 3.7 µg/mL (≈ 12.2 µM)
IC50 (kidney GSTs; kidney cytosol from normal saline treated control group, P. curatellifolia experiments): 7.36 µg/mL and 7.4 µg/mL
IC50 (kidney GSTs; kidney cytosol from saline-treated control group, C. zeyheri experiments): 10 µg/mL (≈ 33 µM)

From paper PMC4960700, “In vivo and in vitro inhibition of rat liver glutathione transferases activity by extracts from Combretum zeyheri (Combretaceae) and Parinari curatellifolia (Chrysobalanaceae)” (BMC Complementary and Alternative Medicine, 2016)
